Ends that are not written are not given here.

The values that follow come from patent US12042545B2, “Encapsulated extracellular vesicles” (THE BOARD OF TRUSTEES OF THE UNIVERSITY OF ILLINOIS, priority 2020, dated 2024).

One assay is described as follows: Bulk transport experiments: release from alginate hydrogels.
Conditions: not given
With `NC1=N[C@H](O)[C@H]2[C@H]3O[C@]4(O)O[C@@H]([C@@H](O)[C@@]2(N1)[C@@H]4O)[C@]3(O)CO` [tetrodotoxin], the “effect of treatment on EV release from hydrogels” value (“effect of treatment on EV release” for short) was “significantly increased EV release in soft and stiff stress relaxing hydrogels”.

The same assay, now with this note: EVs encapsulated in alginate hydrogels, agent added or tethered.
On to `O=C(O)CN(CCOCCOCCN(CC(=O)O)CC(=O)O)CC(=O)O` [EGTA], for which the “effect of treatment on EV release” value is reported as “did not affect the release”. Regarding `CCN(c1nc(N)c(C(=O)NC(=N)N)nc1Cl)C(C)C` [EIPA], the “effect of treatment on EV release” value is on record as “did not alter EV release from the hydrogels”.

For `O=C(O)c1cc([N+](=O)[O-])ccc1NCCCc1ccccc1` [NPPB], the “effect of treatment on EV release” value is on record as “did not alter EV release from the hydrogels”.

Regarding `C[C@@H](N)[C@H]1CC[C@H](C(=O)Nc2ccncc2)CC1` [Y27632], the “effect of treatment on EV release” value was “did not affect the EV release”. On to `Cc1ccc2c(c1)C(=O)C1(O)CCN(c3ccccc3)C1=N2` (stereo not drawn) [blebbistatin], for which the “effect of treatment on EV release” value is listed as “did not affect the EV release”. Turning to `C[C@H](CCC(=O)O)C[C@H](C)C[C@H](C)C(=O)/C=C(\O)[C@H](C)C[C@H](C)C/C=C/[C@@H](C)[C@@H](O)[C@@H](C)[C@@H](O)C[C@@H]1CC[C@@](C)([C@H]2CC[C@@](C)([C@@H](C)O)O2)O1` [ionomycin], the “effect of treatment on EV release” value was “did not affect the release”. On to “GsMTx4: a selective inhibition of cation-permeable mechanosensitive channels (GCLEFWWKCNPNDDKCCRPKLKCSKLFKLCNFSF; ends and bridges not checked; cysteine pairing not given here; UniProt Q7YT39 47-80, looked up)”, for which the “effect of treatment on EV release” value was “increased EV release in stiff stress relaxing hydrogels”.

The same assay, now with this note: added to EV preparations during lyophilization.
For the molecule `OC[C@H]1O[C@H](O[C@H]2O[C@H](CO)[C@@H](O)[C@H](O)[C@H]2O)[C@H](O)[C@@H](O)[C@@H]1O` [trehalose], the “release behavior of lyophilized EVs with cryoprotectant” value was “recovered release behavior”.
